Where only a bound is given, the exact number is not on record here.

What all share (format): cell-based
The target of test [1] is T1, human TLR8 (Homo sapiens, UniProt Q9NR97).
T1 construct: host or cells: HEK-Blue cells
T1 sequence (Q9NR97 27-1041): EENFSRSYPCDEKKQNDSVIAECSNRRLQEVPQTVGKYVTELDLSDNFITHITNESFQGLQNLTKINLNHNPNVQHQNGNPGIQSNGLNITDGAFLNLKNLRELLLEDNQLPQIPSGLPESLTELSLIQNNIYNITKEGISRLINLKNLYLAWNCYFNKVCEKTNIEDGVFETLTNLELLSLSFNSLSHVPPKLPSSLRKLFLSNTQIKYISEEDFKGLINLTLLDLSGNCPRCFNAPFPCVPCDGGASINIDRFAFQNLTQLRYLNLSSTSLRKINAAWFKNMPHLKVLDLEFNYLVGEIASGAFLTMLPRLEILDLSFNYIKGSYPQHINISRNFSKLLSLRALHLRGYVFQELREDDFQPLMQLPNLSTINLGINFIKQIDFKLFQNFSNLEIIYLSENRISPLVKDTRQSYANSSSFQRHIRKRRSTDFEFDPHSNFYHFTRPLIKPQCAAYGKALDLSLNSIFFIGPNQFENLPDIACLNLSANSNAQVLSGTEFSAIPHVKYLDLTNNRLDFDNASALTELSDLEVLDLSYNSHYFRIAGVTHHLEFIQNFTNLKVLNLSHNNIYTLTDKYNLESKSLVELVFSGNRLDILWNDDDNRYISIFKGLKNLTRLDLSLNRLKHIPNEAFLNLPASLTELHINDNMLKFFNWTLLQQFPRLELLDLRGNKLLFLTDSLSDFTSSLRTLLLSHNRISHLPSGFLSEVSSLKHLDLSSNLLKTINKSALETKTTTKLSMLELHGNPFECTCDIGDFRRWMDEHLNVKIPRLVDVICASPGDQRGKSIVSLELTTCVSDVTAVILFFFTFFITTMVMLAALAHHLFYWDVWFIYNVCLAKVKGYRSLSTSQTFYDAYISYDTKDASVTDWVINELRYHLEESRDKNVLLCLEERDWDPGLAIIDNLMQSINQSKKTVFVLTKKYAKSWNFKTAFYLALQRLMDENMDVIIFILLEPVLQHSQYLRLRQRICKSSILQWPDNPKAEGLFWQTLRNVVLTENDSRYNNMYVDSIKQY
Kind of test: TLR8 inhibition reporter assay (HEK-Blue cells, SEAP reporter). To be noted: HEK-Blue cells overexpressing human TLR8; stimulated with R848 15.9 μM; SEAP read after 22 hour; dose range 0.05 nM-50 μM. The method, then: (§1) HEK-Blue™-cells (Invivogen) overexpressing human TLR7, TLR8 or TLR9 receptors were used for screening inhibitors of these receptors using an inducible SEAP (secreted embryonic alkaline phosphatase) reporter gene under the control of the IFN-β minimal promoter fused to five NF-κB and AP-1-binding sites. Briefly, cells are seeded into Greiner 384 well plates (15000 cells per well for TLR7, 20,000 for TLR8 and 25,000 for TLR9) and then treated with test compounds in DMSO to yield a final dose response concentration range of 0.05 nM-50 μM. After a 30 minute compound pre-treatment at room temperature, the cells are then stimulated with a TLR7 ligand (gardiquimod at a final concentration of 7.5 μM), TLR8 ligand (R848 at a final concentration of 15.9 μM) or TLR9 ligand (ODN2006 at a final concentration of 5 nM) to activate NF-κB and AP-1 which induce the production of SEAP. After a 22 hour incubation at 37° C., 5% CO2, SEAP levels are determined with the addition of HEK-Blue™ Detection reagent (Invivogen), a cell culture medium that allows for detection of SEAP, according to manufacturer's specifications. The percent inhibition is determined as the % reduction in the HEK-Blue signal present in wells treated with agonist plus DMSO alone compared to wells treated with a known inhibitor.
In general terms: In a reporter assay the amount or activity of a reporter protein is the signal.

The target of test [2] is T2, human TLR7 (Homo sapiens, UniProt Q9NYK1).
T2 construct: host or cells: HEK-Blue cells
T2 sequence (Q9NYK1 27-1049): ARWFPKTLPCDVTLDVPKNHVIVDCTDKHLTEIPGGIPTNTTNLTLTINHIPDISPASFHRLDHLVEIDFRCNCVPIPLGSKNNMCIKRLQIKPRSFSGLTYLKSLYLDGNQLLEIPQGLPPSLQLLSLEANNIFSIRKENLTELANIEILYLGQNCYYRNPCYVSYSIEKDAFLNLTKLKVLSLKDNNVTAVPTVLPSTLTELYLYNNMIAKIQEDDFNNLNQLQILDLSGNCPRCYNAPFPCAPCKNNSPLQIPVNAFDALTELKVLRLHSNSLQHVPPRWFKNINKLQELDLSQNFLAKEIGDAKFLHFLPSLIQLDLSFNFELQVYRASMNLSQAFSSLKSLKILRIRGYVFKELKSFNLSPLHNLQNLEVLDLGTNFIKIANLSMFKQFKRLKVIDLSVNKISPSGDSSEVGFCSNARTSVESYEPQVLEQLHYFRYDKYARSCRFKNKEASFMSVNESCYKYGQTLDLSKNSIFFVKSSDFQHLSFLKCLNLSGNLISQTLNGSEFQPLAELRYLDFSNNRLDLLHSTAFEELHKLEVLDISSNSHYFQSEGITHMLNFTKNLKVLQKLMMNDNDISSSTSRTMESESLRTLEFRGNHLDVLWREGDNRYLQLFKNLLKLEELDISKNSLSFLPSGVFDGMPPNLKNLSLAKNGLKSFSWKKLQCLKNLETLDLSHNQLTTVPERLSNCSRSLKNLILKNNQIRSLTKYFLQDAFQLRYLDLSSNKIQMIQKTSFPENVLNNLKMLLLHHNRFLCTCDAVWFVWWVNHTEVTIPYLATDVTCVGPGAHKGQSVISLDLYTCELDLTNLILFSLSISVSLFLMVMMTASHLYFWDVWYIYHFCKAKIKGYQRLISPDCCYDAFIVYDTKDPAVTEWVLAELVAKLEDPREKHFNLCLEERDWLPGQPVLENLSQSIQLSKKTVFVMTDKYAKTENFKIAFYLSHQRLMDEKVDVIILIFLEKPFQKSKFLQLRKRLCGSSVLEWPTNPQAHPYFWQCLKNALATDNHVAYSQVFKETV
Kind of test: TLR7 inhibition reporter assay (HEK-Blue cells, SEAP reporter). The following applies: HEK-Blue cells overexpressing human TLR7; stimulated with gardiquimod 7.5 μM; SEAP read after 22 hour; dose range 0.05 nM-50 μM. How it is done: as §1

The target in test [3] is T3, human TLR9 (Homo sapiens, UniProt Q9NR96).
T3 construct: host or cells: HEK-Blue cells
T3 sequence (Q9NR96 26-1032): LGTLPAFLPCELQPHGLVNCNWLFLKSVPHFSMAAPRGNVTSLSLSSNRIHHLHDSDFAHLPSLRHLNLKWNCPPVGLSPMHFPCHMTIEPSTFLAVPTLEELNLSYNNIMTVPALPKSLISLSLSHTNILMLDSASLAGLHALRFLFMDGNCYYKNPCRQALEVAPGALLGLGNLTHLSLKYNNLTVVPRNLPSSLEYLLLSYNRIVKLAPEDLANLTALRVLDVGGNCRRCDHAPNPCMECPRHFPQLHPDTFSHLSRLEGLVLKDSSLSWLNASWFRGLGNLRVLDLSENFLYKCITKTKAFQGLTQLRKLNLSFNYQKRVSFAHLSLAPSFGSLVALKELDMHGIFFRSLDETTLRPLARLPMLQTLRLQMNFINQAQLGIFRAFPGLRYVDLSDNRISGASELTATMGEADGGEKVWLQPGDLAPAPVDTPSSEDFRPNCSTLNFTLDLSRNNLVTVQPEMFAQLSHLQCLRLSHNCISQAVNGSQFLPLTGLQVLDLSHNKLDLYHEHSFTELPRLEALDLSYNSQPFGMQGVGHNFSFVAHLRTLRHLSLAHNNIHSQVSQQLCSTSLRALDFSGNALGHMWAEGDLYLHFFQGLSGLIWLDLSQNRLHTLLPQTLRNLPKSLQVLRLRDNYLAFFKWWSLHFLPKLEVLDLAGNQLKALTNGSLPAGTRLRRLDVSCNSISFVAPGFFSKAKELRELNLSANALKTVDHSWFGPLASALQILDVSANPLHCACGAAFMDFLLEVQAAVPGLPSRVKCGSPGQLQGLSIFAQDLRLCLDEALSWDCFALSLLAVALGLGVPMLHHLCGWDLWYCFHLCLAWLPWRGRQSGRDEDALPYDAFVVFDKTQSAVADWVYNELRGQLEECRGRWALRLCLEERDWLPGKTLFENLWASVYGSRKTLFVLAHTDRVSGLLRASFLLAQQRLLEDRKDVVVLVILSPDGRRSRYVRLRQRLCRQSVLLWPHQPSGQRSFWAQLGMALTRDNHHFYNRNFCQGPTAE
Kind of test: TLR9 inhibition reporter assay (HEK-Blue cells, SEAP reporter). The following applies: HEK-Blue cells overexpressing human TLR9; stimulated with ODN2006 5 nM; SEAP read after 22 hour; dose range 0.05 nM-50 μM. How it is done:
as §1

One may read the IC50 as the concentration that inhibits the measured activity by half. A high value points to weaker potency. Turning to `N#Cc1cccc(-c2cc3cc(-c4ccc(C5CCN(C6COC6)CC5)cc4)ccc3[nH]c2=O)c1` [Example 99, 3-(6-{4-[1-(oxetan-3-yl)piperidin-4-yl]phenyl}-2-oxo-1,2-dihydroquinolin-3-yl) benzonitrile], the results for the concentration for half-maximal inhibition (IC50) in test [1], in test [2] and in test [3] were not below 50000 nM, 16700 nM and 1650 nM, respectively.
With `CC(C)N1CCN(c2ccc(-c3ccc4[nH]c(=O)c(-c5ccccc5C#N)cc4c3)cc2)CC1` [Example 15, 2-(2-oxo-6-{4-[4-(propan-2-yl)piperazin-1-yl]phenyl}-1,2-dihydroquinolin-3-yl)benzonitrile], the figures for the IC50 in test [1], in test [2] and in test [3] were 1030 nM, 459 nM and 259 nM, respectively.
Turning to `CC(C)N1CCN(c2ccc(-c3ccc4c(c3)cc(-c3ccc(S(C)(=O)=O)cc3)c(=O)n4C)cc2)CC1` [Example 27, 3-(4-methanesulfonylphenyl)-1-methyl-6-{4-[4-(propan-2-yl)piperazin-1-yl]phenyl}-1,2-dihydroquinolin-2-one], the figures for the half-inhibitory concentration (IC50) in test [1], in test [2] and in test [3] were 1040 nM, 2500 nM and 233 nM, respectively.
For `CC(C)N1CCN(c2ccc(-c3ccc4[nH]c(=O)c(-c5c(Cl)cccc5Cl)cc4c3)cc2)CC1` [Example 37] the same measures were not below 50000 nM, 5560 nM and 367 nM.
For `CC(C)N1CCN(c2ccc(-c3ccc4[nH]c(=O)c(-c5cccc(OC(F)(F)F)c5)cc4c3)cc2)CC1` [Example 46, 6-{4-[4-(propan-2-yl)piperazin-1-yl]phenyl}-3-[3-(trifluoromethoxy)phenyl]-1,2-dihydroquinolin-2-one], the IC50 in test [1] was not below 50000 nM; in test [2], not below 50000 nM; in test [3], 781 nM.
On to `O=c1[nH]c2ccc(-c3ccc(C4CCN(C5COC5)CC4)cc3)cc2cc1-c1ccc2nccnc2c1` [Example 94, 6-{4-[1-(oxetan-3-yl)piperidin-4-yl]phenyl}-3-(quinoxalin-6-yl)-1,2-dihydroquinolin-2-one], for which the IC50 in test [1] is not below 50000 nM; in test [2] it was not below 50000 nM; in test [3], 689 nM.
With `CS(=O)(=O)Nc1cccc(-c2cc3cc(-c4ccc(C5CCN(C6COC6)CC5)cc4)ccc3[nH]c2=O)c1` [Example 98, N-[3-(6-{4-[1-(oxetan-3-yl)piperidin-4-yl]phenyl}-2-oxo-1,2-dihydroquinolin-3-yl)phenyl]methanesulfonamide], the IC50 was 26700 nM in test [1], not below 50000 nM in test [2] and 1430 nM in test [3].
In the case of `CCCC(=O)Nc1ccc(-c2cc3cc(-c4ccc(N5CCN(C(C)C)CC5)cc4)ccc3[nH]c2=O)cc1` [Example 21, N-[4-(2-oxo-6-{4-[4-(propan-2-yl)piperazin-1-yl]phenyl}-1,2-dihydroquinolin-3-yl)phenyl]butanamide], the half-inhibitory concentration (IC50) in test [1] is not below 50000 nM; in test [2] it was not below 50000 nM; in test [3], 214 nM.
With `CCc1c(-c2ccc(S(C)(=O)=O)cc2)c(=O)n(C)c2ccc(-c3ccc(C4CCN(C5COC5)CC4)cc3)cc12` [Example 101, 4-ethyl-3-(4-methanesulfonylphenyl)-1-methyl-6-{4-[1-(oxetan-3-yl)piperidin-4-yl]phenyl}-1,2-dihydroquinolin-2-one], the IC50 in test [1] was 1340 nM; in test [2], not below 50000 nM; in test [3] it was 2370 nM.
Take `CC(=O)Nc1ccc(-c2cc3cc(-c4ccc(C5CCN(C(C)C)CC5)cc4)ccc3[nH]c2=O)cc1` [Example 81, N-[4-(2-oxo-6-{4-[1-(propan-2-yl)piperidin-4-yl]phenyl}-1,2-dihydroquinolin-3-yl)phenyl]acetamide]: the IC50 in test [1] was 796 nM; in test [2] it was 333 nM; in test [3] it was 309 nM.
For the molecule `COc1cccc(-c2cc3cc(-c4ccc(N5CCN(C(C)C)CC5)cc4)ccc3[nH]c2=O)c1` [Example 30, 3-(3-methoxyphenyl)-6-{4-[4-(propan-2-yl)piperazin-1-yl]phenyl}-1,2-dihydroquinolin-2-one], the IC50 came to 5220 nM in test [1], 2160 nM in test [2] and 277 nM in test [3].

For the origin of these results see patent US20260183275A1, “SUBSTITUTED QUINOLONE COMPOUNDS USEFUL AS INHIBITORS OF TLR9” (Bristol-Myers Squibb Company, priority 2022, published 2026).
